Measurements taken from US20200214324A1, “Masking Bitter Flavors” (Board of Supervisors of Louisiana State University and …, priority 2009, published 2020).
Like-named read-outs stand apart in the source and are kept apart here.

Tests used:
[1] = taste of the mogroside itself and blocking of bitter tastes; format: in vivo
Text: In many (but not necessarily all) uses of the present invention, it is preferred to use levels of mogroside below the threshold at which the mogroside imparts a sweetening effect. […] Mogroside V is sweet. Mogroside III has been reported to be tasteless. […] If desired, it should be possible to use Mogroside III in higher concentration than Mogroside V to block bitter or other unwanted tastes, without imparting any sweetening effect.

[2] = has been reported; cited from earlier work
[3] = sodium reduction blends tested on potato chips; format: in vivo
Protocol: (§1) These sodium reduction blends were tested with red beans, navy beans, crackers, and potato chips. Results are shown in Table III (in which “M” is an abbreviation for Mogroside V.)

[4] = sodium reduction blends tested on navy beans; format: in vivo
Protocol: as §1

[5] = sodium reduction blends tested on whole wheat crackers; format: in vivo
Protocol: as §1

[6] = sodium reduction blends tested on red beans; format: in vivo
Protocol: as §1

[7] = sodium reduction blends tested on shredded wheat crackers; format: in vivo
Protocol: as §1

[8] = blind tasting of poached chicken liver and chicken gizzard puree; format: in vivo
Protocol: In initial experiments, Mogroside V was tested at varying levels from 100-500 ppm. […] Mogroside V was added to a chicken liver and chicken gizzard puree, and the puree was poached to an internal temperature of 74° C. A control puree with no mogroside was identically cooked. Six individuals tasted the samples blind and could easily differentiate them.

C[C@H](CC[C@@H](O[C@@H]1O[C@H](CO[C@@H]2O[C@H](CO)[C@@H](O)[C@H](O)[C@H]2O)[C@@H](O)[C@H](O)[C@H]1O)C(C)(C)O)[C@H]1CC[C@@]2(C)[C@@H]3CC=C4[C@@H](CC[C@H](O[C@@H]5O[C@H](CO)[C@@H](O)[C@H](O)[C@H]5O)C4(C)C)[C@]3(C)[C@H](O)C[C@]12C [Mogroside III]
blocking of bitter tastes ([1]; preliminary tests): effectively blocks bitter tastes | taste of the compound itself [2]: tasteless

[Cl-].[Na+] [NaCl]
Overall Taste [3]: 6.97 | Saltiness [3]: 6.92 | Overall Taste [4]: 6.17 | Saltiness [4]: 6.13 | Overall Taste [5]: 7.04 | Saltiness [5]: 6.96 | Overall Taste [6]: 6.79 | Saltiness [6]: 6.63 | Overall Taste [7]: 6.04 | Saltiness [7]: 6.04

C[C@H](CC[C@@H](O[C@@H]1O[C@H](CO[C@@H]2O[C@H](CO)[C@@H](O)[C@H](O)[C@H]2O)[C@@H](O)[C@H](O)[C@H]1O[C@@H]1O[C@H](CO)[C@@H](O)[C@H](O)[C@H]1O)C(C)(C)O)[C@H]1CC[C@@]2(C)[C@@H]3CC=C4[C@@H](CC[C@H](O[C@@H]5O[C@H](CO[C@@H]6O[C@H](CO)[C@@H](O)[C@H](O)[C@H]6O)[C@@H](O)[C@H](O)[C@H]5O)C4(C)C)[C@]3(C)[C@H](O)C[C@]12C [Mogroside V]
taste description by six blind tasters ([8]; 150-250 ppm, puree poached to 74° C., control livery, organy, bloody): slightly sweet, “bologna-like,” and “bland.” | effect above the preferred range ([8]; above about 250 ppm): a very sweet taste developed | effect below the preferred range ([8]; below about 150 ppm): the effect was minimal | preferred levels of mogroside ([8]; initial experiments, tested 100-500 ppm): 150-250 ppm | preference of testers ([8]; samples with mogroside vs control puree, six individuals): All testers preferred the samples with mogroside | level preferred by the majority of testers ([8]; tested 100-500 ppm): 200 ppm | taste of the compound itself ([1]; in vivo): sweet
